In patent publication US9957252B2, “Metalloenzyme inhibitor compounds as fungicides” (Dow AgroSciences LLC, priority 2014, dated 2018):
Like-named read-outs stand apart in the source and are kept apart here.

Columns and labels:
[1] = test system: standard laboratory SEPTTR isolate (SI SEPTTR); Mycosphaerella graminicola; Anamorph: Septoria tritici; assay: Leaf blotch of wheat fungicidal activity, Type A assay (technical grade in acetone/water with Triton X-100, booth sprayer), standard laboratory isolate; format: in vivo, Mycosphaerella graminicola on wheat plants (variety Yuma); details: Zymoseptoria tritici, 24 h, 1 Day Protectant, wheat seedlings (Yuma), read-out: Disease control, SI SEPTTR Type A Assay (50 ppm) 1DP
Method: (§1) Evaluation of Fungicidal Activity: Leaf Blotch of Wheat (Mycosphaerella graminicola; Anamorph: Septoria tritici; Bayer code SEPTTR):
(§2) For Type A assays, technical grades of the experimental fungicides in Table 4 below were dissolved in acetone, and then mixed with nine volumes of water containing 110 ppm Triton X-100. The fungicide solutions were applied onto wheat seedlings using an automated booth sprayer. For Type B assays, emulsifiable concentrate (EC) formulations of technical grades of experimental fungicides in Table 4 below were prepared at 10% (w/v), and then mixed with 150 volumes of 0.1% Trycol 5941. The fungicide solutions were applied onto wheat seedlings using an automated track sprayer at 200 L/ha. All sprayed plants were allowed to air dry prior to further handling.
(§3) Wheat plants (variety Yuma) were grown from seed in a greenhouse in 50% mineral soil/50% soil-less Metro mix until the first leaf was fully emerged, with 7-10 seedlings per pot. Prior to or after application of experimental fungicides, plants were inoculated either with spores of a standard laboratory SEPTTR isolate (SI SEPTTR) or with spores from a SEPTTR field isolate collected from Wellsbourne, England in 2012 (FI SEPTTR). After inoculation, the plants were kept for 3 days at 20° C. in 100% relative humidity (one day in a dark dew chamber followed by two days in a lighted dew chamber). Plants were then transferred to a 20° C. greenhouse for disease development. When disease symptoms were fully expressed on untreated plants, infection levels on treated plants were assessed on a scale of 0 to 100 percent disease severity. Percent disease control was calculated using the ratio of disease severity on treated plants relative to untreated plants.

[2] = Leaf blotch of wheat fungicidal activity, Type B assay (10% EC formulation in 0.1% Trycol 5941, track sprayer 200 L/ha), field isolate; format: in vivo, Mycosphaerella graminicola on wheat plants (variety Yuma); details: Zymoseptoria tritici, 72 h, field isolate (Wellsbourne, England 2012), wheat seedlings (Yuma)
Method: as §1, §2, §3

[3] = 3 Day Curative, read-out: Disease control, FI SEPTTR Type B Assay (100 g/ha) 3DC
[4] = 3 Day Protectant, read-out: Disease control, FI SEPTTR Type B Assay (100 g/ha) 3DP

Row | SMILES | pest or weed control at 50 ppm [1] | pest or weed control at 100 g/ha [2, 3] | pest or weed control at 100 g/ha [2, 4]
1 | CC(C)(C)C(O)(c1ccc(-c2ccccc2)cc1)c1cncnc1 (stereo not drawn) [Compound 5] | 80 to 100% | – | –
2 | CC(C)(C)C(O)(c1ccc(-c2ccc(C(F)(F)F)cc2)cc1)c1cncnc1 (stereo not drawn) [Compound 6] | 80 to 100% | – | –
3 | CC(C)(C)C(O)(c1ccc(-c2ccc(C(F)(F)F)nc2)cc1)c1cncnc1 (stereo not drawn) [Compound 7] | 80 to 100% | – | –
4 | CC(C)(C)C(O)(c1ccc(-c2ccccc2OC(F)(F)F)cc1)c1cncnc1 (stereo not drawn) [Compound 12] | 60 to 79% | – | –
5 | COc1ccc(-c2ccc(C(O)(c3cncnc3)C(C)(C)C)cc2)cc1 (stereo not drawn) [Compound 13] | 80 to 100% | – | –
6 | CC(C)(C)C(O)(c1cncnc1)c1ccc(-c2ccccc2)cc1Cl (stereo not drawn) [Compound 27] | 80 to 100% | – | –
7 | CC(C)(C)C(O)(c1cncnc1)c1ccc(-c2ccccc2)cc1F (stereo not drawn) [Compound 28] | 80 to 100% | – | –
8 | CC(C)(C)C(O)(c1ccc(-c2ccc(C(F)(F)F)cc2F)cc1)c1cncnc1 (stereo not drawn) [Compound 29] | 80 to 100% | – | –
9 | CC(C)(C)C(O)(c1cncnc1)c1ccc(-c2ccc(C(F)(F)F)cc2F)cc1F (stereo not drawn) [Compound 31] | 80 to 100% | – | –
10 | CC(C)(C)c1ccc(-c2ccc(C(O)(c3cncnc3)C(C)(C)C)cc2)cc1 (stereo not drawn) [Compound 33] | 80 to 100% | – | –
11 | CC(C)(C)C(O)(c1cccnc1)c1ccc(-c2ccc(OC(F)(F)F)cc2)cc1Cl (stereo not drawn) [Compound 64] | – | 80 to 100% | 80 to 100%
12 | CC(C)(C)C(O)(c1cccnc1)c1ccc(-c2ccc(SC(F)(F)F)cc2)cc1Cl (stereo not drawn) [Compound 65] | – | 80 to 100% | 80 to 100%
13 | CC(C)(C)C(O)(c1cccnc1)c1ccc(-c2ccc(OC(F)F)cc2)cc1Cl (stereo not drawn) [Compound 66] | – | < 40% | 80 to 100%
14 | CC(C)(C)C(O)(c1cccnc1)c1ccc(-c2ccc(OCC(F)(F)F)cc2)cc1Cl (stereo not drawn) [Compound 67] | – | 80 to 100% | 80 to 100%
15 | CC(C)(C)C(O)(c1cccnc1)c1ccc(-c2ccc(C#N)cc2)cc1Cl (stereo not drawn) [Compound 68] | – | 60 to 79% | 80 to 100%
16 | CC(C)(C)C(O)(c1cccnc1)c1ccc(-c2ccc(CC#N)cc2)cc1Cl (stereo not drawn) [Compound 69] | – | 40 to 59% | 80 to 100%
17 | CC(C)(C)C(O)(c1cccnc1)c1ccc(-c2ccc(C3(C#N)CC3)cc2)cc1Cl (stereo not drawn) [Compound 70] | – | 80 to 100% | 80 to 100%
18 | CC(C)(C#N)c1ccc(-c2ccc(C(O)(c3cccnc3)C(C)(C)C)c(Cl)c2)cc1 (stereo not drawn) [Compound 71] | – | 80 to 100% | 80 to 100%
19 | CC(C)(C)c1ccc(-c2ccc(C(O)(c3cccnc3)C(C)(C)C)c(Cl)c2)cc1 (stereo not drawn) [Compound 72] | – | 60 to 79% | 80 to 100%
20 | Cc1cc(OC(F)(F)F)ccc1-c1ccc(C(O)(c2cccnc2)C(C)(C)C)c(Cl)c1 (stereo not drawn) [Compound 73] | – | 40 to 59% | 80 to 100%
21 | Cc1cc(OC(F)(F)F)ccc1-c1ccc(C(O)(c2cncnc2)C(C)(C)C)c(F)c1 (stereo not drawn) [Compound 74] | – | 80 to 100% | 80 to 100%
22 | CC(C)(C)C(O)(c1cncnc1)c1ccc(-c2ccc(C3(C#N)CC3)cc2)cc1F (stereo not drawn) [Compound 75] | – | 80 to 100% | 80 to 100%
23 | CC(C)(C)C(O)(c1cncnc1)c1ccc(-c2ccc(OCC(F)(F)F)nc2)cc1F (stereo not drawn) [Compound 76] | – | 80 to 100% | 60 to 79%
24 | CC(C)(C#N)c1ccc(-c2ccc(C(O)(c3cncnc3)C(C)(C)C)c(F)c2)cc1 (stereo not drawn) [Compound 77] | – | 80 to 100% | 80 to 100%
25 | CC(C)(C)C(O)(c1cncnc1)c1ccc(-c2ccc(OC(F)(F)F)cc2F)cc1F (stereo not drawn) [Compound 78] | – | 80 to 100% | 80 to 100%

Row | SMILES | pest or weed control at 50 ppm [1] | pest or weed control at 100 g/ha [2, 3] | pest or weed control at 100 g/ha [2, 4]
26 | COC(c1cncnc1)(c1ccc(-c2ccc(OC(F)(F)F)cc2)cc1F)C(C)(C)C (stereo not drawn) [Compound 79, 5-(1-(3-fluoro-4′-(trifluoromethoxy)-[1,1′-biphenyl]-4-yl)-1-methoxy-2,2-dimethylpropyl)pyrimidine] | – | 80 to 100% | 80 to 100%
27 | COC(c1cncnc1)(c1ccc(-c2ccc(OC(F)(F)F)cc2C)cc1F)C(C)(C)C (stereo not drawn) [Compound 80] | – | 80 to 100% | 80 to 100%
28 | COC(c1cncnc1)(c1ccc(-c2ccc(OC(F)(F)F)cc2F)cc1F)C(C)(C)C (stereo not drawn) [Compound 81] | – | 80 to 100% | 80 to 100%
29 | COC(c1cncnc1)(c1ccc(-c2ccc(OCC(F)(F)F)nc2)cc1F)C(C)(C)C (stereo not drawn) [Compound 82] | – | 80 to 100% | 80 to 100%
30 | COC(c1cncnc1)(c1ccc(-c2ccc(OCC(F)(F)F)cc2)cc1F)C(C)(C)C (stereo not drawn) [Compound 83] | – | 80 to 100% | 80 to 100%
31 | COC(c1cncnc1)(c1ccc(-c2ccc(C3(C#N)CC3)cc2)cc1F)C(C)(C)C (stereo not drawn) [Compound 84] | – | 80 to 100% | 80 to 100%
32 | COC(c1cncnc1)(c1ccc(-c2ccc(C(C)(C)C#N)cc2)cc1F)C(C)(C)C (stereo not drawn) [Compound 85] | – | 80 to 100% | 80 to 100%
33 | CC(C)(C#N)c1ccc(-c2ccc(C(O)(c3cncnc3)C(C)(C)C)c(Cl)c2)cc1 (stereo not drawn) [Compound 86] | – | 60 to 79% | 80 to 100%
34 | COc1ncncc1C(O)(c1ccc(-c2ccc(OCC(F)(F)F)nc2)cc1F)C(C)(C)C (stereo not drawn) [Compound 87] | – | 80 to 100% | 80 to 100%
35 | COc1ncncc1C(O)(c1ccc(-c2ccc(OC(F)(F)F)cc2C)cc1F)C(C)(C)C (stereo not drawn) [Compound 88] | – | 80 to 100% | 80 to 100%
36 | CC(C)(C)C(O)(c1cncnc1)c1ccc(-c2ccc(C3(C#N)CC3)cc2)cc1Cl (stereo not drawn) [Compound 89] | – | 60 to 79% | 80 to 100%
37 | Cc1cc(-c2ccc(C(C)(C)C#N)cc2F)ccc1C(O)(c1cncnc1)C(C)(C)C (stereo not drawn) [Compound 91] | – | 80 to 100% | 80 to 100%
38 | COc1ncncc1C(O)(c1ccc(-c2ccc(C(C)(C)C#N)cc2)cc1F)C(C)(C)C (stereo not drawn) [Compound 92] | – | 80 to 100% | 80 to 100%
39 | Cc1cc(-c2ccc(OC(F)(F)F)cn2)ccc1C(O)(c1cncnc1)C(C)(C)C (stereo not drawn) [Compound 94, 2,2-dimethyl-1-(2-methyl-4-(5-(trifluoromethoxy)pyridin-2-yl)phenyl)-1-(pyrimidin-5-yl)propan-1-ol] | – | 80 to 100% | 80 to 100%
40 | CC(C)(C#N)c1ccc(-c2ccc(C(O)(c3cncnc3)C(C)(C)C)c(Cl)c2)c(F)c1 (stereo not drawn) [Compound 95] | – | 80 to 100% | 80 to 100%
41 | COc1ncncc1C(O)(c1ccc(-c2ccc(OC(F)(F)F)cc2)cc1F)C(C)(C)C (stereo not drawn) [Compound 96] | – | 80 to 100% | 80 to 100%
42 | CC(C)(C)C(O)(c1cncnc1)c1ccc(-c2ccc(C3(C#N)CC3)cc2F)cc1F (stereo not drawn) [Compound 97] | – | 80 to 100% | 80 to 100%
43 | Cc1cc(OC(F)(F)F)ccc1-c1ccc(C(O)(c2cncnc2)C(C)(C)C)c(Cl)c1 (stereo not drawn) [Compound 99] | – | 80 to 100% | 80 to 100%
44 | COc1ncncc1C(O)(c1ccc(-c2ccc(C3(C#N)CC3)cc2)cc1F)C(C)(C)C (stereo not drawn) [Compound 100] | – | 80 to 100% | 80 to 100%
45 | CC(C)(C#N)c1ccc(-c2ccc(C(O)(c3cncnc3)C(C)(C)C)c(F)c2)c(F)c1 (stereo not drawn) [Compound 101] | – | 80 to 100% | 80 to 100%
46 | CC(C)(C)C(O)(c1cncnc1)c1ccc(-c2ccc(OC(F)(F)F)cn2)cc1F (stereo not drawn) [Compound 102] | – | 80 to 100% | 80 to 100%
47 | Cc1cc(-c2ccc(C3(C#N)CC3)cc2F)ccc1C(O)(c1cncnc1)C(C)(C)C (stereo not drawn) [Compound 103] | – | 80 to 100% | 80 to 100%
48 | CC(C)(C)C(O)(c1cncnc1)c1ccc(-c2ccc(OC(F)(F)F)cc2F)cc1Cl (stereo not drawn) [Compound 104] | – | 80 to 100% | 80 to 100%
49 | Cc1cc(C(C)(C)C#N)ccc1-c1ccc(C(O)(c2cncnc2)C(C)(C)C)c(F)c1 (stereo not drawn) [Compound 105] | – | 80 to 100% | 80 to 100%
50 | CC(C)(C)C(O)(c1cncnc1)c1ccc(-c2ccc(C3(C#N)CC3)cc2F)cc1Cl (stereo not drawn) [Compound 106] | – | 60 to 79% | 80 to 100%
